Paper doi:10.1101/2021.04.08.439011v1 (biorxiv, 2021)

Tests used:
[1] = biological target: ACVRL1 (Homo sapiens, UniProt P37023); details: 1 µM; binder
[2] = biological target: AURKC (Homo sapiens, UniProt Q9UQB9); details: 1 µM; binder
[3] = biological target: BMPR2 (Homo sapiens, UniProt Q13873); details: 1 µM; binder
[4] = biological target: BTK (Homo sapiens, UniProt Q06187); details: 1 µM; binder
[5] = biological target: BUB1 (Homo sapiens, UniProt O43683); details: 1 µM; binder
[6] = biological target: CDK7 (Homo sapiens, UniProt P50613); details: 1 µM; binder
[7] = biological target: DCAMKL3 (Homo sapiens, UniProt Q9C098); details: 1 µM; binder
[8] = biological target: DYRK1A (Homo sapiens, UniProt Q13627); details: 1 µM; binder
[9] = biological target: EGFR(E746-A750del) (Homo sapiens, UniProt P00533, DEL746-750); details: 1 µM; binder
[10] = biological target: EGFR(S752-I759del) (Homo sapiens, UniProt P00533, DEL752-759); details: 1 µM; binder
[11] = biological target: EPHA1 (Homo sapiens, UniProt P21709); details: 1 µM; binder
[12] = biological target: ERK5 (Homo sapiens, UniProt Q13164); details: 1 µM; binder
[13] = biological target: GSK3A (Homo sapiens, UniProt P49840); details: 1 µM; binder
[14] = biological target: ITK (Homo sapiens, UniProt Q08881); details: 1 µM; binder
[15] = biological target: KIT(D816H) (Homo sapiens, UniProt P10721, D816H); details: 1 µM; binder
[16] = biological target: KIT(D816V) (Homo sapiens, UniProt P10721, D816V); details: 1 µM; binder
[17] = biological target: MAP3K14 (Homo sapiens, UniProt Q99558); details: 1 µM; binder
[18] = biological target: MAP4K3 (Homo sapiens, UniProt Q8IVH8); details: 1 µM; binder
[19] = biological target: MARK4 (Homo sapiens, UniProt Q96L34); details: 1 µM; binder
[20] = biological target: MELK (Homo sapiens, UniProt Q14680); details: 1 µM; binder
[21] = biological target: MET(M1250T) (Homo sapiens, UniProt P08581, M1250T); details: 1 µM; binder
[22] = biological target: PAK7 (Homo sapiens, UniProt Q9P286); details: 1 µM; binder
[23] = biological target: PIK3CA(E545K) (Homo sapiens, UniProt P42336, E545K); details: 1 µM; binder
[24] = biological target: PIK3CG (Homo sapiens, UniProt P48736); details: 1 µM; binder
[25] = biological target: PRKD1 (Homo sapiens, UniProt Q15139); details: 1 µM; binder
[26] = biological target: RPS6KA4 (Homo sapiens, UniProt O75676); details: Kin.Dom.1 N-terminal; binder
[27] = biological target: SGK (Homo sapiens, UniProt O00141); details: 1 µM; binder
[28] = biological target: STK16 (Homo sapiens, UniProt O75716); details: 1 µM; binder
[29] = biological target: WNK3 (Homo sapiens, UniProt Q9BYP7); details: 1 µM; binder
[30] = biological target: YSK1 (Homo sapiens, UniProt O00506); details: 1 µM; binder

Sequence of PRKD1 (Q15139 whole entry): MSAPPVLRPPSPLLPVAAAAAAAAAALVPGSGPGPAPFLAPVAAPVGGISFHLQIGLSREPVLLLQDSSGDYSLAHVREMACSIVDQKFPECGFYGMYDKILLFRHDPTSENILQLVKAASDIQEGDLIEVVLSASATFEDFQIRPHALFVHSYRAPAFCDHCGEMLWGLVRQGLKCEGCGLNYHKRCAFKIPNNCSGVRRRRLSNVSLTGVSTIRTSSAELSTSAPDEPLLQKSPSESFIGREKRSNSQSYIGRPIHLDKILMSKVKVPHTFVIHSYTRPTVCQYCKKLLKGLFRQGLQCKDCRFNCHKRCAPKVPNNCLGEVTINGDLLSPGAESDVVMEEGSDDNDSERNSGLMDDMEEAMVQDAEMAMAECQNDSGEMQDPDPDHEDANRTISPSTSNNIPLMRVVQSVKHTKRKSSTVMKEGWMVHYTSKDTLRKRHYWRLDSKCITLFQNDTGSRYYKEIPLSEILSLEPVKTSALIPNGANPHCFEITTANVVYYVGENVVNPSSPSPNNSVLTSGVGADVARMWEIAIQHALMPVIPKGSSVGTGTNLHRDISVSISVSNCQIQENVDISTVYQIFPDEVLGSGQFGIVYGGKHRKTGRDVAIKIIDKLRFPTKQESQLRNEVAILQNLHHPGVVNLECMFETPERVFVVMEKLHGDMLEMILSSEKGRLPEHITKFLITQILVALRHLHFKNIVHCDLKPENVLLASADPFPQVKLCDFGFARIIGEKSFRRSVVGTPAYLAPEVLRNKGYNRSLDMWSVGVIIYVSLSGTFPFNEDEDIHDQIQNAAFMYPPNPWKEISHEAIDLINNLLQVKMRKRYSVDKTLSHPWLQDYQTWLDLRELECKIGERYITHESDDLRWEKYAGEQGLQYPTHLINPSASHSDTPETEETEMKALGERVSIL
Sequence of MARK4 (Q96L34 whole entry): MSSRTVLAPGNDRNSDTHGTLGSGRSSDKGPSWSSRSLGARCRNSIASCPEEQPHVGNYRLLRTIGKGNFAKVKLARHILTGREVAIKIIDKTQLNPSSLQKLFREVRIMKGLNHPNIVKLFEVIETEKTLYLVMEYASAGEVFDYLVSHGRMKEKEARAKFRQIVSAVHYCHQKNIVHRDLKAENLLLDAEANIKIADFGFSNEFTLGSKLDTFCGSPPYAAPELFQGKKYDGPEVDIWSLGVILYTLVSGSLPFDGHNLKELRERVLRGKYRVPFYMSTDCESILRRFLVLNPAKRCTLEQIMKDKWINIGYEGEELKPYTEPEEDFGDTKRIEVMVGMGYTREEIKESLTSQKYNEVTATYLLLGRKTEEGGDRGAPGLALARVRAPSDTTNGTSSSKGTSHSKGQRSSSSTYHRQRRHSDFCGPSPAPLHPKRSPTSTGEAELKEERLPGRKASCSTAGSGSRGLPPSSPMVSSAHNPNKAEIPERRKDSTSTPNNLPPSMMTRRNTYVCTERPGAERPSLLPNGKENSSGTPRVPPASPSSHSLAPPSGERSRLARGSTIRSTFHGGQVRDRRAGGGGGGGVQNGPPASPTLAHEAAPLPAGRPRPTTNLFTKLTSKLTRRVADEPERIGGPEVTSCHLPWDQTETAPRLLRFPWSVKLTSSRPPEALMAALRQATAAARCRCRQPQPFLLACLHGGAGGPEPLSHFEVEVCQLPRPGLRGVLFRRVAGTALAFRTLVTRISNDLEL
Sequence of KIT(D816H) (P10721 whole entry D816H): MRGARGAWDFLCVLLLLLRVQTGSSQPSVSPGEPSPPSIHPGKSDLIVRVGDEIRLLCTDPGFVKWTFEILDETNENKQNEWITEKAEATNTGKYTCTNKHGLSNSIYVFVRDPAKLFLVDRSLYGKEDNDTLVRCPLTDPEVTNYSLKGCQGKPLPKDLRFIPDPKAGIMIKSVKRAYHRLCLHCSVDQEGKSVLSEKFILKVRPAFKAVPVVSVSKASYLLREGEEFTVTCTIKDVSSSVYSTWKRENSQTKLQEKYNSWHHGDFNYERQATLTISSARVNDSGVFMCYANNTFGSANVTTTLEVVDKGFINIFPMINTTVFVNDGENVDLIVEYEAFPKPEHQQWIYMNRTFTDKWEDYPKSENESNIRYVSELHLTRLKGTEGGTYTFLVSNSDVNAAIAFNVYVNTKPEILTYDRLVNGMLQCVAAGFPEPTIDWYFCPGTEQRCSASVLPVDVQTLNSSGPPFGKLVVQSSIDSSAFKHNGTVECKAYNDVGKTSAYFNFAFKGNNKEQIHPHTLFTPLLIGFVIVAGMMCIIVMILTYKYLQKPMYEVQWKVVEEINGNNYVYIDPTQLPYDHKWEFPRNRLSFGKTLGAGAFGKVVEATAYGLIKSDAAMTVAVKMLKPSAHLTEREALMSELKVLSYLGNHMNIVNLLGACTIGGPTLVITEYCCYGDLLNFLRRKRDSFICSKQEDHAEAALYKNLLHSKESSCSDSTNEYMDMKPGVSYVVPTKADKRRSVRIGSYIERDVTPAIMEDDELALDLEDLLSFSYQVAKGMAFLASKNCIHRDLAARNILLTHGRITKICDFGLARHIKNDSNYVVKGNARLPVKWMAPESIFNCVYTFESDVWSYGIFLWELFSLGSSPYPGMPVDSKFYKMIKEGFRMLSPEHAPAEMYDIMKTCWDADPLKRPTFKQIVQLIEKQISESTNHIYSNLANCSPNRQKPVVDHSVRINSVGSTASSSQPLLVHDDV
Sequence of MAP3K14 (Q99558 whole entry): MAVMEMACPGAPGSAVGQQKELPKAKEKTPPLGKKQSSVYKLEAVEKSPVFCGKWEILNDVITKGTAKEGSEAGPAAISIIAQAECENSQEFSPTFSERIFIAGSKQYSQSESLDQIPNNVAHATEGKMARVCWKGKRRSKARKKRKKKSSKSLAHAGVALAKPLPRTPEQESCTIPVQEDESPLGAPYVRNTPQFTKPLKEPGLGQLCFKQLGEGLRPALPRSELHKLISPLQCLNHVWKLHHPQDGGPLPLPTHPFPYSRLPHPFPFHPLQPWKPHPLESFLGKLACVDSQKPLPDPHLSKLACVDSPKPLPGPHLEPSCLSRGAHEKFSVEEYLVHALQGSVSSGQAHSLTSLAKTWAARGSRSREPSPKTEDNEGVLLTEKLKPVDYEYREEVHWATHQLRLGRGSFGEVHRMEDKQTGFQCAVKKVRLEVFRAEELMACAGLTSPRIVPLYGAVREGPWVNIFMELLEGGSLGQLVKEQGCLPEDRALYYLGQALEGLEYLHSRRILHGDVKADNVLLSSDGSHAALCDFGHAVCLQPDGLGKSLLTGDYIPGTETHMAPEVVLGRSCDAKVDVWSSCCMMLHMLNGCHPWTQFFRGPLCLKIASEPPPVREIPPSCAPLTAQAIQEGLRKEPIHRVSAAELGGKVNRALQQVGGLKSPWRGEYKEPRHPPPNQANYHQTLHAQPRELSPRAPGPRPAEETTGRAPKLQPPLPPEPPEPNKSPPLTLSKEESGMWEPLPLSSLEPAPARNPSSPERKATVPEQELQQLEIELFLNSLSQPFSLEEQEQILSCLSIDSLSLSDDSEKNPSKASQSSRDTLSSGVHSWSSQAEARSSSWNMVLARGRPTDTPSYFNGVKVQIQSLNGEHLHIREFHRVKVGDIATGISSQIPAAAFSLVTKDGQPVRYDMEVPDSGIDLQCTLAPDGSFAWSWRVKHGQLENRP
Sequence of GSK3A (P49840 whole entry): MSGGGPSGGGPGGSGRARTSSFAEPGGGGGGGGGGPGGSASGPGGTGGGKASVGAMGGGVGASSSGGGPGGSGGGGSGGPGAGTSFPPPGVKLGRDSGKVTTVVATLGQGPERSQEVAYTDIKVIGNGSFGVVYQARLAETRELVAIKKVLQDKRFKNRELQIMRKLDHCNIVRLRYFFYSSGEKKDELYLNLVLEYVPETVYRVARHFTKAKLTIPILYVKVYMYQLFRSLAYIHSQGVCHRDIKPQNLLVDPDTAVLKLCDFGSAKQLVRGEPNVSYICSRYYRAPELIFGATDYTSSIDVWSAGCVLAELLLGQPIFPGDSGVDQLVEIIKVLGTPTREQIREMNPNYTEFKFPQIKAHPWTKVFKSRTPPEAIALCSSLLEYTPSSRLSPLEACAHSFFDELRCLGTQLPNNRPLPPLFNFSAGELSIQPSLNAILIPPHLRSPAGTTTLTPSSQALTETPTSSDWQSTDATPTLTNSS
Sequence of ACVRL1 (P37023 whole entry): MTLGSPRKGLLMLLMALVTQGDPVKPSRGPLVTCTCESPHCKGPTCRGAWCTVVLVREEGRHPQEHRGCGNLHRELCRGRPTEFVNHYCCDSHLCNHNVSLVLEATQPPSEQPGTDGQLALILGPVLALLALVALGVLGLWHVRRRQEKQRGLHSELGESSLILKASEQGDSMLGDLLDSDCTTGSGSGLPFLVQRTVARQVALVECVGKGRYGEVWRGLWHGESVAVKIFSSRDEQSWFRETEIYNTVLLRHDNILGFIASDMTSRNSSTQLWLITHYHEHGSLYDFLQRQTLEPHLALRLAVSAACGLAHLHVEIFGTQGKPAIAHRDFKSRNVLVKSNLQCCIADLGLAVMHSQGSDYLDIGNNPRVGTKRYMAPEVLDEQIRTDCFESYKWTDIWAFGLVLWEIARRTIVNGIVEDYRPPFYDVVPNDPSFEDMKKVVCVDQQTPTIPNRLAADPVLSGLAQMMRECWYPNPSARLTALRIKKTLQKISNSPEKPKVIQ
Sequence of CDK7 (P50613 whole entry): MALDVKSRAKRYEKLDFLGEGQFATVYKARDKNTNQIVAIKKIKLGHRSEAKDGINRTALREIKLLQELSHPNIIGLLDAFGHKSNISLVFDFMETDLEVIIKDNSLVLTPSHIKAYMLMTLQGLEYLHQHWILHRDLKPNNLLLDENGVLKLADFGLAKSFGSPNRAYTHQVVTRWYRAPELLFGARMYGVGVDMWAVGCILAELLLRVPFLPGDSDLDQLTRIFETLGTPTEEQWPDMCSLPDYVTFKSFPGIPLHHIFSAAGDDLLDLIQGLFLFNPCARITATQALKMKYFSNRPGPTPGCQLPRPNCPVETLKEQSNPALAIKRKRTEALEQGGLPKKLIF
Sequence of KIT(D816V) (P10721 whole entry D816V): as the sequence (P10721 whole entry D816H) above, with H816V counted along it

CNc1ncc2cc(-c3ccc(-c4cccc(C)n4)cc3Cl)c(=O)n(C[C@H]3OC[C@H](N)CO3)c2n1 [compound 6, G-5555]
Percent Control [1]: 100% | Percent Control [2]: 20% | Percent Control [3]: 100% | Percent Control [4]: 63% | Percent Control [5]: 89% | Percent Control [6]: 86% | Percent Control [7]: 0.5% | Percent Control [8]: 100% | Percent Control [9]: 100% | Percent Control [10]: 100% | Percent Control [11]: 34% | Percent Control [12]: 52% | Percent Control [13]: 100% | Percent Control [14]: 100% | Percent Control [15]: 100% | Percent Control [16]: 100% | Percent Control [17]: 100% | Percent Control [18]: 23% | Percent Control [19]: 100% | Percent Control [20]: 47% | Percent Control [21]: 45% | Percent Control [22]: 82% | Percent Control [23]: 97% | Percent Control [24]: 93% | Percent Control [25]: 17% | Percent Control [26]: 100% | Percent Control [27]: 100% | Percent Control [28]: 69% | Percent Control [29]: 100% | Percent Control [30]: 36%
